The text below walks through data of ChEMBL document CHEMBL1201862, “PubChem BioAssay data set” (2004).

Test [1] addresses T1, Short transient receptor potential channel 4 (Mus musculus, UniProt Q9QUQ5).
T1 sequence (Q9QUQ5 whole entry): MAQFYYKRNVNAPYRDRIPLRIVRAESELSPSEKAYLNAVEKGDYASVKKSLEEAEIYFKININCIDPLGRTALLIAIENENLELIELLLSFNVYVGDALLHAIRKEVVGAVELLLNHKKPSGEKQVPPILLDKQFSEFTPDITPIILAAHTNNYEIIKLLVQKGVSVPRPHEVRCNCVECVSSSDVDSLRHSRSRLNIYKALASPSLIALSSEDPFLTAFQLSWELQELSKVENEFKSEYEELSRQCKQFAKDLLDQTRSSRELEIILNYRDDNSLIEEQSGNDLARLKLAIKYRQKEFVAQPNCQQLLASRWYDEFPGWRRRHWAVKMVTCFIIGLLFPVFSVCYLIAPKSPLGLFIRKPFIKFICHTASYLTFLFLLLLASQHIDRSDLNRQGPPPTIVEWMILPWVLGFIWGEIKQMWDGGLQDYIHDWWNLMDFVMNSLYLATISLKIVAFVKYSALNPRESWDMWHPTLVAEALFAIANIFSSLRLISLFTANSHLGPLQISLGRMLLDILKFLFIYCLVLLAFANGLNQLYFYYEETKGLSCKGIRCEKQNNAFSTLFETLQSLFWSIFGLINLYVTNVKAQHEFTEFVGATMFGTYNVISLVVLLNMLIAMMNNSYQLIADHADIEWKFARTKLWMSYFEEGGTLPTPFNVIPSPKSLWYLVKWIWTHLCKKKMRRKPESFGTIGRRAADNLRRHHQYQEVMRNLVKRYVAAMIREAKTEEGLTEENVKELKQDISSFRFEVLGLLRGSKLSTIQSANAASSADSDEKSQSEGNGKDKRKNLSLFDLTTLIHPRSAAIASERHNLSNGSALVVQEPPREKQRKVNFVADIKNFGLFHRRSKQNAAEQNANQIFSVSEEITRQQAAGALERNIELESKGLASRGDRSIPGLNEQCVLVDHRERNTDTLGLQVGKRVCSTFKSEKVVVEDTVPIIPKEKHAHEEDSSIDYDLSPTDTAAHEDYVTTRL
Briefly: block of DAMGO-driven TRPC4 calcium entry – cell-based, HEK293 TRPC4/mu-opioid, Fluo-4 calcium, dose response (AID 434942).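 Further: potency of inhibitors blocking the TRPC4 calcium response.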 It is filed as functional.

Test [2] has as its target Delta-type opioid receptor (Homo sapiens, UniProt P41143). Briefly: Counterscreen for agonists of heterodimerization of the mu 1 (OPRM1) and delta 1 (OPRD1) opioid receptors: Luminescence-based cell-based high throughput dose response assay to identify agonists of OPRD1 homodimerization. [Related pubchem assays (depositor defined):AID504326, AID504355, AID504692, AID504904, AID504905]. It is filed as functional. Background: The purpose of a counterscreen is to sort out artefacts and off-target activity.

The target in test [3] is Mu-type opioid receptor (Homo sapiens, UniProt P35372). As to the kind of experiment: Counterscreen for agonists of heterodimerization of the mu 1 (OPRM1) and delta 1 (OPRD1) opioid receptors: Luminescence-based cell-based high throughput dose response assay to identify agonists of OPRM1 homodimerization. It is filed as functional.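 Further: U2OS cells expressing OPRM1 and beta-arrestin as split beta-galactosidase partners.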
Mu-type opioid receptor, sequence (P35372 whole entry): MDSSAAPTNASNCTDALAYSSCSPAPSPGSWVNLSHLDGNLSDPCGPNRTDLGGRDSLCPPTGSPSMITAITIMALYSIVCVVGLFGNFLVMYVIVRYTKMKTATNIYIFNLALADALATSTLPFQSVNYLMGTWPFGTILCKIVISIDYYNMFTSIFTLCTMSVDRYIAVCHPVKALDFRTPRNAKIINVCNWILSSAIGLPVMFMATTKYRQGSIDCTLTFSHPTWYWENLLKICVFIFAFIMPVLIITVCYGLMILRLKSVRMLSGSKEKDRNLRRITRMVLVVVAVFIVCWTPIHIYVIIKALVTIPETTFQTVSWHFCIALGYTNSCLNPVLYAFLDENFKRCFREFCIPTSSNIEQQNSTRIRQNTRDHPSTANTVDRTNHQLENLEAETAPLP
In test [4] the target is T1, Short transient receptor potential channel 4. As to the kind of experiment: calcium entry via TRPC4 opening agents – cell-based, HEK293 TRPC4/mu-opioid, Fluo-4 calcium, dose response (AID 434937). It is filed as functional.
The target of test [5] is 5-hydroxytryptamine receptor 5A (Homo sapiens, UniProt P47898). As to the kind of experiment: Counterscreen for agonists of OPRM1-OPRD1 heterodimerization: luminescence-based cell-based high throughput dose response assay to identify agonists of 5-hydroxytryptamine (serotonin) 5A receptor (HTR5A). [Related pubchem assays (depositor defined):AID504326, AID504355, AID504692, AID504904, AID504905]. It is filed as functional.
5-hydroxytryptamine receptor 5A, sequence (P47898 whole entry): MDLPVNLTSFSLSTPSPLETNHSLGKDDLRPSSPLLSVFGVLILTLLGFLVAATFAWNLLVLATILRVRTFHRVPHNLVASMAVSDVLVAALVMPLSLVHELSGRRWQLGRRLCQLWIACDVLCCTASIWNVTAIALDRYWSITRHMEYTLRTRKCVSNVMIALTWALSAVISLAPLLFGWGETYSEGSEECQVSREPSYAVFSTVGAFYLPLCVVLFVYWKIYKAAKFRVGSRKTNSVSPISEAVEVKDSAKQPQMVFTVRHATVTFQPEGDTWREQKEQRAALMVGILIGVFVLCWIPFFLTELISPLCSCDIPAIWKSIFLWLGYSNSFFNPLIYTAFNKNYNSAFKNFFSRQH

Test [6] concerns Escherichia coli. As to the kind of experiment: microbe, parasite or virus in culture.
Test [7] is described as follows: Luminescence Cell-Based Dose Confirmation HTS to Identify Activators of 5'UTR Stem-Loop Driven Alpha-Synuclein mRNA Translation in H4 Neuroglioblastoma Cells. [Related pubchem assays: 1829 (Project Summary), 1814 (Primary HTS)]. It is filed as functional.
The nature of test [8]: cells. It is filed as functional.
A short description of test [9]: Luminescence Cell-Based Dose Response HTS to Identify Activators of Luciferase Translation or Activity in H4 […] Cells. [Related pubchem assays: 1829 (Project Summary), 1814 (Primary HTS)]. It is filed as functional.
Test [10] concerns the target Prothrombin (Bos taurus, UniProt P00735). As to the kind of experiment: thrombin protease inhibitors – biochemical, fluorescence polarization, uHTS hits, dose response (AID 602369). It is filed as functional. (In general: Polarisation of emitted light reports the rotation of a fluorescent probe.)
Test [11] has as its target 72 kDa type IV collagenase (Homo sapiens, UniProt P08253). As to the kind of experiment: Dose Response validation of uHTS RPN11 inhibitor hits using a MMP-2 Fluorescence assay. It is filed as functional.
Test [12] has as its system H9c2. As to the kind of experiment: cells. It is filed as functional, cell-based. The settings on record: Rattus norvegicus, H9c2, Myocardium.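 Further: confirmatory concentration-response retest of ultra-high-throughput screening hits for modulation of myocardial damage; cell death induced by hydrogen peroxide oxidative stress; compound pretreatment for 60 min then peroxide exposure for 2 h; potency is for protecting the cells against peroxide damage rather than for killing them.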
Test [13] concerns the target 26S proteasome non-ATPase regulatory subunit 14 (Homo sapiens, UniProt O00487). As to the kind of experiment: inhibition of proteasome subunit RPN11 – biochemical, fluorescence polarization, uHTS hits, confirmation (AID 602368). It is filed as functional.
The subject of test [14] is Vero. As to the kind of experiment: cells. It is filed as functional. The settings on record: Chlorocebus sabaeus.
The test system of test [15] is HEK293. Briefly: EBV LMP1 TES2 canonical NF-kB signalling blockers – cell-based, HEK293, luciferase, cherry-pick, dose response (AID 588343). It is filed as functional. The settings on record: Homo sapiens.
In test [16] the target is Dual specificity protein kinase CLK1 (Homo sapiens, UniProt P49759). As to the kind of experiment: inhibition of human CLK1 activity – biochemical, cherry-picked samples, selectivity assay for Dyrk1A inhibitor project, dose response (AID 588811).
Dual specificity protein kinase CLK1, sequence (P49759 whole entry): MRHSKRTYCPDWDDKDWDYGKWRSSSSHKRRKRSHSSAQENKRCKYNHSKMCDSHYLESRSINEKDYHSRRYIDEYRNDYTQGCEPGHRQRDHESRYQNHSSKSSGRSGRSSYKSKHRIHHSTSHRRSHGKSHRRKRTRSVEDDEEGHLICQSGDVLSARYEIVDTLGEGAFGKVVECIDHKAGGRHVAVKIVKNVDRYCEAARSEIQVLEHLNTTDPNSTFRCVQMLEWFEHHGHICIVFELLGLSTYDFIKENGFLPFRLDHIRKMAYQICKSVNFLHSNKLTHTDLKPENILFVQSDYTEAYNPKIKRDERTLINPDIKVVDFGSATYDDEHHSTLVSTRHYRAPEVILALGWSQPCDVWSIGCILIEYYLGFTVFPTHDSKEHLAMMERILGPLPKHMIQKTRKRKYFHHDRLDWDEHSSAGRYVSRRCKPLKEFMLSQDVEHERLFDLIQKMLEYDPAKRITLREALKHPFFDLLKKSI

Activity calls are given as the source filed them.

One may read the EC50 as the concentration at which the effect is half-maximal. As a reminder, the AC50 is the midpoint of the concentration-response curve, whichever way the signal moves. The term IC50 denotes the concentration needed to halve the response being measured. As a reminder, the CC50 is the concentration giving 50% cytotoxicity.

Delta-type opioid receptor, sequence (P41143 whole entry): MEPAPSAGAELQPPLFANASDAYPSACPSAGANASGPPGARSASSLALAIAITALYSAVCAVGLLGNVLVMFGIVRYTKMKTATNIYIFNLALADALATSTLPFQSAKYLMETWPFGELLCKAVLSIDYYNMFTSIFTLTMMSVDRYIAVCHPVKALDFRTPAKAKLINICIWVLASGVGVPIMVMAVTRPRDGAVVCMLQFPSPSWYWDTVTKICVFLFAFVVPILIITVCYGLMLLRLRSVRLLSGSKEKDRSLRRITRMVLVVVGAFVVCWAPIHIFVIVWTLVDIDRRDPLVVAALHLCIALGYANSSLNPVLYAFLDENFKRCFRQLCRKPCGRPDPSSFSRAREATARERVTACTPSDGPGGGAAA
72 kDa type IV collagenase, sequence (P08253 whole entry): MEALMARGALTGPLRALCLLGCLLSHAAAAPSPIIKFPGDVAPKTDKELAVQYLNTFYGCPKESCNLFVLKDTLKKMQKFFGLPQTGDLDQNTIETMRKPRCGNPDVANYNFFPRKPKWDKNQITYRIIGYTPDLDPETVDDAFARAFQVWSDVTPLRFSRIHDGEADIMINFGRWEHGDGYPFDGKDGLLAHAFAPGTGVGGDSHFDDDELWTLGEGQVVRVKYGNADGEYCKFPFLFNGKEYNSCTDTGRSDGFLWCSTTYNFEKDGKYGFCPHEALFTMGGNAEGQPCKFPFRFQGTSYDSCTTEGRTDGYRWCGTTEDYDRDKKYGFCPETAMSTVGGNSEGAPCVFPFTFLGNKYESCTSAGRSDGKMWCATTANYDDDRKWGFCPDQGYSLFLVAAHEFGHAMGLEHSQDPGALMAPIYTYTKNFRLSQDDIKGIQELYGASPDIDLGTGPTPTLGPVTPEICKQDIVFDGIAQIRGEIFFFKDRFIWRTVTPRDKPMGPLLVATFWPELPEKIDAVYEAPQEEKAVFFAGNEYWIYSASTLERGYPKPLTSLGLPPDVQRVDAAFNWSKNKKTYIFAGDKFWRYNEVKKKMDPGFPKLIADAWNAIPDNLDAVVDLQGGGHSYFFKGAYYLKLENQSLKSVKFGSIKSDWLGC
26S proteasome non-ATPase regulatory subunit 14, sequence (O00487 whole entry): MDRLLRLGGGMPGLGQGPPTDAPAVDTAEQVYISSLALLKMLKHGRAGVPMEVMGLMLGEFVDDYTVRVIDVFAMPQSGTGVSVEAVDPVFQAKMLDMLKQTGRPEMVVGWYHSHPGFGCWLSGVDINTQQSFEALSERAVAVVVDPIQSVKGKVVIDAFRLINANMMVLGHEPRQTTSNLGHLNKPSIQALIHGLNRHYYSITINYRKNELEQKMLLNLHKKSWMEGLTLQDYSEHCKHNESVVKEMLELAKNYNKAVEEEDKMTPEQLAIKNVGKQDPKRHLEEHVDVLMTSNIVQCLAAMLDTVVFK

Regarding `COc1cccc(CC2(CO)CCCN(Cc3ccccc3-c3ccco3)C2)c1` (stereo not drawn), the EC50 in test [1] was 1.19 µM (active); in test [2], > 92.5 µM (inactive); in [3], > 92.5 µM (inactive); in [4], 2.66 µM (active); in [5], > 92.5 µM (inactive).

On to `COc1ccc(C(CNC(=O)/C=C/c2c(Cl)nc3ccccn23)N(C)C)cc1` (stereo not drawn), for which the EC50 in test [2] was > 92.5 µM (inactive); in test [3], > 92.5 µM (inactive); in test [4], 0.473 µM (active); in test [5] it was > 92.5 µM (inactive).

Turning to `O=C(Nc1ccccc1Oc1ccccc1)c1ccc(Br)o1`, the AC50 in [6] is > 380 µM (inactive).

Turning to `CCc1cc2c(=O)n(C(C)C(=O)OC3CCCCC3)cnc2s1` (stereo not drawn), the EC50 in test [7] was 105 µM (active); in test [9], 67.6 µM (active). Besides, in test [8], the IC50 was 17.9 µM (active). For the same compound, in test [6], the half-maximal activity concentration (AC50) was 54.4 µM (active).

In the case of `CN(C(=O)COC(=O)CNC(=O)C12CC3CC(CC(C3)C1)C2)C1CCS(=O)(=O)C1` (stereo not drawn), the AC50 in [6] was 27.2 µM (active).

With `COc1ccc2o/c(=N/NC(=O)c3cccs3)c(C(N)=O)cc2c1`, the IC50 in test [10] is 79.7 µM (active); in [11] it was > 100 µM (inactive); in test [12], > 79 µM (inactive); in test [13], 38.5 µM (active).

As to `CN(C)C(CN=C(S)Nc1ccccc1)c1cccnc1` (stereo not drawn), the EC50 in [2] is > 92.4 µM (inactive); in test [3], > 92.4 µM (inactive); in test [4], 0.149 µM (active); in test [5], > 92.4 µM (inactive).

For `N=c1n(CC(=O)c2cccc([N+](=O)[O-])c2)c2ccccc2n1Cc1ccccc1`, in test [14], the CC50 was 11.2 µM (active).

Consider `c1csc(CNc2ncnc3ccc(-c4ccoc4)cc23)c1`, for which the AC50 is 19 µM (active) in test [15] and 0.00979 µM (active) in [16].

Take `O=C1N(c2ccccc2C(F)(F)F)O[C@]1(c1ccccc1)C1CCCCC1`: the CC50 in test [14] was > 25 µM (active).

With `Cc1noc(CN(C)c2ncnc3ccc(-c4ccc5c(c4)OCO5)cc23)n1`, the AC50 in test [16] is < 0.00195 µM (active).
